Read-outs that look alike come from different tables or passages of the source.

Consider 18 compounds from patent publication US8710233B2 (Gruenenthal GmbH, priority 2005, dated 2014).

Test [1] concerns capsaicin induced hypothermie. The test can be described thus: Hypothermie assay in the mouse (capsaicin induced hypothermie). Type of test: in vivo. The following applies: mouse, read-out: inhibition hypothermie (n = 5); for inhibition in vivo at 0.3 mg/kg: 0.3 mg/kg body weight po; for inhibition in vivo at 1 mg/kg: 1 mg/kg body weight po; for inhibition in vivo at 0.1 mg/kg: 0.1 mg/kg body weight po. The procedure:
V. Hypothermie Assay an der Maus
Male NMRI mice (weight 25-35 gram, supplier IFFA CREDO, Bruxelles, Belgium) are used in the hypothermie assay. The animals are kept under standardized conditions: light/darkness interval (6:00 to 18:00 light; 18:00 to 6:00 Uhr darkness), room temperature 19-22° C., relative humidity 35-70%, 15 times per hour change of compartment air, airflow <0.2 m/sec. The animals were fed on a standardized diet (ssniff diet, ssniff Spezialdiäten GmbH, Soest, Germany) and tap water. Water and diet were detracted during the experiment. All animals were used once in the experiment. The animals were allowed to adapt to the experimental conditions for at least 5 days.
The acute application of capsaicin (VR-1 agonist) leads to a decrease of the core body temperature in rat and mice via stimulation of heat sensors. Only compounds which act as specific VR-1-receptor antagonists can antagonize the capsaicin induced hypothermie. In contrast, morphine induced hypothermie is not antagonized by VR-1 antagonists. Thus, this experiment is suitable for the determination of compounds that act as VR1-antagonists via their effect on the core body temperature.
For the determination of the core body temperature a digital thermometer was used (Thermalert TH-5, physitemp, Clifton N.J., USA). The measuring head was inserted into the rectum.
The individual basis value is determined by measuring the body temperature twice in an interval of about half an hour. […] […] The test compound is given 10 min (i.v.) or 15 min (p.o.), respectively, before application of capsaicin. The body temperature is determined 7.5/15 and 30 min after application of capsaicin (i.v.+i.p.) or 15/30/60/90/120 min after application of capsaicin (p.o.+i.p.), respectively. In addition, another group of mice is only given the test compound or a vehicle control.
The measuring points are given as average values±S.E.M. of the absolute values. The antagonistic effect is given in percent of inhibition of capsaicin induced hypothermie.

Test [2] concerns the target T1, vanilloid receptor 1 (VR1/TRPV1) of the rat species (Rattus norvegicus, UniProt O35433).
T1 construct: The spinal column is removed from decapitated rats; from tissue; host or cells: primary cells dissociated from rat dorsal root ganglia
The test can be described thus: FLIPR Ca2+ influx assay on rat dorsal root ganglia cells (pharmacological method I). Type of test: cell-based. Particulars: table 4, capsaicin. The essentials: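 Primary rat dorsal root ganglion cells loaded with 2 μM Fluo-4, Ca2+ influx read on FLIPR as peak fluorescence. Triplicates, at least 3 independent experiments.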

The target of the next test is T2, vanilloid receptor (VR1) (Homo sapiens, UniProt Q8NER1).
T2 construct: expressed in transfected cells; host or cells: CHO K1 cells (ECACC), stably transfected
Briefly: FLIPR Ca2+ influx assay on CHO K1 cells transfected with the VR1 gene (pharmacological method II). Type of test: cell-based. The following applies: table 4; capsaicin; read-out: Ki (human) Cap.

The next test addresses VR1/TRPV1 receptor (Homo sapiens, UniProt Q8NER1). Briefly: IC50 (human) after pH stimulus. The class given is cell-based. Particulars: for IC50: table 4; for inhibition at 1 µM / inhibition in percent, IC50 (human) after pH stimulus: ne = no effect, @ 1 μM; for inhibition at 1 µM / inhibition at 10 µM: read-out: inhibition in percent, IC50 (human) after pH stimulus.

T1 sequence (O35433 whole entry): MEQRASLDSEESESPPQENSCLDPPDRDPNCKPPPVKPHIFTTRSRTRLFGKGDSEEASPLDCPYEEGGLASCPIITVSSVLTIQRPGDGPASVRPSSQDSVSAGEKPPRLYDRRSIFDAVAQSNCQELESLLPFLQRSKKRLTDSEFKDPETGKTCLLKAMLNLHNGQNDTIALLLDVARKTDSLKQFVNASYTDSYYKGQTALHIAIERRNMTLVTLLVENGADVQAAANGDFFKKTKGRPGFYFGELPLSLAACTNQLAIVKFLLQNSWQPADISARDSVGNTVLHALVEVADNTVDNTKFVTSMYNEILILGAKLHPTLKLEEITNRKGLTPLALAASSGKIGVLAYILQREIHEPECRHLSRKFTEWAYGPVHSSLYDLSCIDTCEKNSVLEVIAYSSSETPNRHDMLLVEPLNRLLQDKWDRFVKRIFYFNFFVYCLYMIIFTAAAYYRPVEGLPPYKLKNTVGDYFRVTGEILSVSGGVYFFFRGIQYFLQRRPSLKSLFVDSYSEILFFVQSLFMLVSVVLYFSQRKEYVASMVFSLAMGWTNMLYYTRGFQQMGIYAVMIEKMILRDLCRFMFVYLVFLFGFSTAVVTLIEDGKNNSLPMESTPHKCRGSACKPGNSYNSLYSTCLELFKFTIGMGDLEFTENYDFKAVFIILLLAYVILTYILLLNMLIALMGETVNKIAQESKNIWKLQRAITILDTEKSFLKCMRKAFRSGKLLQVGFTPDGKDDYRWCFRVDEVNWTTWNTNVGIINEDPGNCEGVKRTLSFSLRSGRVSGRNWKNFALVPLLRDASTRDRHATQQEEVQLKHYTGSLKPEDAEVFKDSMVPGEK
T2 sequence (Q8NER1 whole entry): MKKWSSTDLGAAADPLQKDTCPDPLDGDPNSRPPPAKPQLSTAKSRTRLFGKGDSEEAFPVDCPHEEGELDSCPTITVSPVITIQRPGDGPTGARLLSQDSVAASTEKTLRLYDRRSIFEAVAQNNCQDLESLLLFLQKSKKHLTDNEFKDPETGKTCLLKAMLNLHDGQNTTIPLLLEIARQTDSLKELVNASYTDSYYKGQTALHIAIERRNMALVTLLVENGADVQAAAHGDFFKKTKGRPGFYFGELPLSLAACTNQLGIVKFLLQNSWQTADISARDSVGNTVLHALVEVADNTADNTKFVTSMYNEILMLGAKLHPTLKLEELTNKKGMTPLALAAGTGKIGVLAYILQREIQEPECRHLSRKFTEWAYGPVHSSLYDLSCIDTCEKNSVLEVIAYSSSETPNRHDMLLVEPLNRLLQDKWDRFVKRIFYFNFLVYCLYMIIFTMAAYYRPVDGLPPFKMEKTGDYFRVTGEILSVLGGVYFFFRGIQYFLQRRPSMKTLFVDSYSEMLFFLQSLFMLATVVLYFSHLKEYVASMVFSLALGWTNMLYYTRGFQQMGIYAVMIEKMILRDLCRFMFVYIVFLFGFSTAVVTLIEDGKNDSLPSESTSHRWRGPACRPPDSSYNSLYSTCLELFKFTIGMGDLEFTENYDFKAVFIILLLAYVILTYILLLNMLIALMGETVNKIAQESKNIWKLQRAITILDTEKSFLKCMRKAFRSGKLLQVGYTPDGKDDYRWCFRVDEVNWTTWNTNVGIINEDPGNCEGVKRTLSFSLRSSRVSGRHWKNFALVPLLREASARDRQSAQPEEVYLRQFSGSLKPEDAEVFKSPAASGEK
VR1/TRPV1 receptor, sequence (Q8NER1 whole entry): as above

`CC(C(=O)NCc1ccc(C(F)(F)F)nc1OCc1ccccc1)c1ccc(NS(C)(=O)=O)c(F)c1` (stereo not shown) [Compound 106]: in test [1], the inhibition in vivo at 0.3 mg/kg is 21% and the inhibition in vivo at 1 mg/kg came out at 22%. In test [1] (10 mg/kg body weight po), the inhibition in vivo at 10 mg/kg turned out to be 84%.
On to `CC(C(=O)NCc1ccc(C(F)(F)F)nc1N1CCC(Nc2ccccc2)CC1)c1ccc(NS(C)(=O)=O)c(F)c1` (stereo not shown) [Compound 290], for which, in test [1], the inhibition in vivo at 0.3 mg/kg amounted to 78% and the inhibition in vivo at 1 mg/kg was 68%.
For orientation: Ki means a dissociation constant, usually derived from enzyme kinetics or from competition with a known ligand. In the case of `CC(C(=O)NCc1ccc(C(F)(F)F)nc1N1CCCCCC1)c1ccc(NS(C)(=O)=O)c(F)c1` (stereo not shown) [Example 81, N-(2-azepan-1-yl-6-trifluoromethyl-pyridin-3-ylmethyl)-2-(3-fluoro-4-methylsulfonamido-phenyl)-propionamide], the inhibition in vivo at 0.3 mg/kg in test [1] turned out to be 21%. For the same compound, the Ki in test [2] (read-out: Ki (rat) Cap.) amounted to 2.4 nM.
For the compound `CCCCCCOc1nc(C(F)(F)F)ccc1CNC(=O)[C@H](C)c1ccc(NS(C)(=O)=O)c(F)c1` [Example 94, (R)-2-(3-fluoro-4-methylsulfonamido-phenyl)-N-(2-hexyloxy-6-trifluoromethyl-pyridin-3-ylmethyl)-propionamide], the inhibition in vivo at 0.3 mg/kg in test [1] was found to be 0%.
One may read the IC50 as the concentration that inhibits the measured activity by half. Low values mean higher potency, high ones lower potency. Turning to `CC(C)COc1cc(C(F)(F)F)ccc1CNC(=O)[C@H](C)c1ccc(NS(C)(=O)=O)c(F)c1` [Example 99, (R)-2-(3-fluoro-4-methylsulfonamido-phenyl)-N-(2-isobutoxy-4-trifluoromethyl-benzyl)-propionamide], the Ki on vanilloid receptor (VR1) turned out to be 5.8 nM. For the same compound, in test [1], the inhibition in vivo at 0.3 mg/kg was 1%. The same compound showed an IC50 on VR1/TRPV1 receptor of 419 nM.
With `CC(C(=O)NCc1ccc(C(F)(F)F)nc1OCc1ccccc1)c1ccc(NS(C)(=O)=O)c(F)c1` (stereo not shown) [Example 106, N-(2-benzyloxy-6-trifluoromethyl-pyridin-3-ylmethyl)-2-(3-fluoro-4-methylsulfonamido-phenyl)-propionamide], the Ki at vanilloid receptor (VR1) amounted to 0.5 nM. Also, the inhibition in vivo at 0.1 mg/kg in test [1] came to 24%. This compound also displayed an IC50 against VR1/TRPV1 receptor of 18.6 nM.
Consider `CC(C)CCCc1nc(C(F)(F)F)ccc1CNC(=O)C(C)c1ccc(NS(C)(=O)=O)c(F)c1` (stereo not shown) [Example 268, 2-(3-fluoro-4-methylsulfonamido-phenyl)-N-[2-(4-methyl-pentyl)-6-trifluoromethyl-pyridin-3-ylmethyl]-propionamide], for which the Ki on vanilloid receptor (VR1) turned out to be 0.9 nM; in test [2] (read-out: Ki (rat) Cap.), 0.8 nM. On VR1/TRPV1 receptor, this compound showed an IC50 of 17 nM.
As to `CC(C(=O)NCc1ccc(C(F)(F)F)nc1OCC1CCCCC1)c1ccc(NS(C)(=O)=O)c(F)c1` (stereo not shown) [Example 270, N-(2-cyclohexylmethoxy-6-trifluoromethyl-pyridin-3-ylmethyl)-2-(3-fluoro-4-methylsulfonamido-phenyl)-propionamide], the values for the Ki (at vanilloid receptor (VR1); in test [2] (Ki (rat) Cap.)) were 0.7 nM and 0.5 nM, respectively. The same compound gave an IC50 against VR1/TRPV1 receptor of 19.7 nM.
With `CC1CCC(COc2nc(C(F)(F)F)ccc2CNC(=O)C(C)c2ccc(NS(C)(=O)=O)c(F)c2)CC1` (stereo not shown) [Example 271, 2-(3-fluoro-4-methylsulfonamido-phenyl)-N-[2-(4-methyl-cyclohexylmethoxy)-6-trifluoromethyl-pyridin-3-ylmethyl]-propionamide], the Ki at vanilloid receptor (VR1) worked out at 1 nM; in test [2] (Ki (rat) Cap.), 1.1 nM. Further, at VR1/TRPV1 receptor, the IC50 stood at 44.4 nM.
Regarding `CC(C(=O)NCc1ccc(C(F)(F)F)nc1OCC1CC1(C)C)c1ccc(NS(C)(=O)=O)c(F)c1` (stereo not shown) [Example 279, N-[2-(2,2-dimethyl-cyclopropylmethoxy)-6-trifluoromethyl-pyridin-3-ylmethyl]-2-(3-fluoro-4-methylsulfonamido-phenyl)-propionamide], the Ki at vanilloid receptor (VR1) came out at 1.1 nM; in test [2] (Ki (rat) Cap.), 1.7 nM. On VR1/TRPV1 receptor, this compound gave a 50% inhibitory concentration (IC50) of 161 nM.
One may read the inhibition as the share of the control response that was lost under treatment. Take `CC1CCCN(c2nc(C(F)(F)F)ccc2CNC(=O)C(C)c2ccc(NS(C)(=O)=O)c(F)c2)C1` (stereo not shown) [Example 282, 2-(3-fluoro-4-methylsulfonamido-phenyl)-N-(3-methyl-6′-trifluoromethyl-3,4,5,6-tetrahydro-2H-[1,2′]bipyridinyl-3′-ylmethyl)-propionamide]: the Ki on vanilloid receptor (VR1) was 0.8 nM; in test [2] (read-out: Ki (rat) Cap.), 1.2 nM. The inhibition at 1 µM at VR1/TRPV1 receptor is 57%. At VR1/TRPV1 receptor, the inhibition at 10 µM turned out to be 62%.
For `CC(C(=O)NCc1ccc(C(F)(F)F)nc1N1CCCCC1C)c1ccc(NS(C)(=O)=O)c(F)c1` (stereo not shown) [Example 283, 2-(3-fluoro-4-methylsulfonamido-phenyl)-N-(2-methyl-6′-trifluoromethyl-3,4,5,6-tetrahydro-2H-[1,2′]bipyridinyl-3′-ylmethyl)-propionamide] the same measures were 2.9 nM, 4.5 nM, 51% and 51%.
Take `CC1CCN(c2nc(C(F)(F)F)ccc2CCNC(=O)C(C)c2ccc(NS(C)(=O)=O)c(F)c2)CC1` (stereo not shown) [Example 284, 2-(3-fluoro-4-methylsulfonamido-phenyl)-N-[2-(4-methyl-6′-trifluoromethyl-3,4,5,6-tetrahydro-2H-[1,2′]bipyridinyl-3′-yl)-ethyl]-propionamide]: the Ki was determined as 54.9 nM on vanilloid receptor (VR1) and 48 nM in test [2] (read-out: Ki (rat) Cap.). The “inhibition in percent, IC50 (human) after pH stimulus” value (“inhibition in percent, IC50 (human)” for short) at VR1/TRPV1 receptor is “ne @ 1 μM”.
As for `CC(C(=O)NCc1ccc(C(F)(F)F)nc1N1CCC(C#N)(c2ccccc2)CC1)c1ccc(NS(C)(=O)=O)c(F)c1` (stereo not shown) [Example 285, N-(4-cyano-4-phenyl-6′-trifluoromethyl-3,4,5,6-tetrahydro-2H-[1,2′]bipyridinyl-3′-ylmethyl)-2-(3-fluoro-4-methylsulfonamido-phenyl)-propionamide], the Ki on vanilloid receptor (VR1) was found to be 3.5 nM; in test [2] (read-out: Ki (rat) Cap.) it was 4.5 nM. Besides, on VR1/TRPV1 receptor, half-maximal inhibition (IC50) was put at 377 nM.
Turning to `CCS(=O)(=O)Nc1ccc(C(C)C(=O)NCc2ccc(C(F)(F)F)nc2N2CCC(C)CC2)cc1F` (stereo not shown) [Example 287, 2-(4-ethanesulfonylamino-3-fluoro-phenyl)-N-(4-methyl-6′-trifluoromethyl-3,4,5,6-tetrahydro-2H-[1,2′]bipyridinyl-3′-ylmethyl)-propionamide], the figures for the Ki (at vanilloid receptor (VR1); in test [2] (read-out: Ki (rat) Cap.)) were 4.4 nM and 3.5 nM, respectively. The IC50 against VR1/TRPV1 receptor was 189 nM.
Consider `CC1CCN(c2nc(C(F)(F)F)ccc2CNC(=O)C(C)c2ccc(NS(=O)(=O)N(C)C)c(F)c2)CC1` (stereo not shown) [Example 288, 2-(4-dimethylaminsulfonylamino-3-fluoro-phenyl)-N-(4-methyl-6′-trifluoromethyl-3,4,5,6-tetrahydro-2H-[1,2′]bipyridinyl-3′-ylmethyl)-propionamide], for which the Ki on vanilloid receptor (VR1) turned out to be 42 nM; in test [2] (read-out: Ki (rat) Cap.), 41 nM. Also, on VR1/TRPV1 receptor, the “inhibition in percent, IC50 (human)” value is listed as “ne @ 1 μM”.
`COc1cc(C(C)C(=O)NCc2ccc(C(F)(F)F)nc2N2CCC(C)CC2)ccc1NS(C)(=O)=O` (stereo not shown) [Example 289, 2-(4-methylsulfonamido-3-methoxy-phenyl)-N-(4-methyl-6′-trifluoromethyl-3,4,5,6-tetrahydro-2H-[1,2′]bipyridinyl-3′-ylmethyl)-propionamide]: the inhibitory constant (Ki) came out at 2.5 nM at vanilloid receptor (VR1) and 3.3 nM in test [2] (read-out: Ki (rat) Cap.). For the same compound, at VR1/TRPV1 receptor, the “inhibition in percent, IC50 (human)” value is reported as “ne @ 1 μM”.
Consider `CC(C(=O)NCc1ccc(C(F)(F)F)nc1N1CCC(Nc2ccccc2)CC1)c1ccc(NS(C)(=O)=O)c(F)c1` (stereo not shown) [Example 290, 2-(3-fluoro-4-methylsulfonamido-phenyl)-N-(4-phenylamino-6′-trifluoromethyl-3,4,5,6-tetrahydro-2H-[1,2′]bipyridinyl-3′-ylmethyl)-propionamide], for which the Ki on vanilloid receptor (VR1) was determined as 4.4 nM. The inhibition in vivo at 0.1 mg/kg in test [1] is 24%. The compound further yielded an IC50 at VR1/TRPV1 receptor of 480 nM.
